Results on three molecules are retold here after paper PMC12079163 (Drug Development Research, 2025).

Data set [1] is described as follows: Solubility under the assay conditions. The note with it: HDAC, BCL‐2 and cell assays; data not reliable, not reported. It counts as physicochemical.
The target in another data set is T1, HDAC6 (Homo sapiens, UniProt Q9UBN7).
T1 sequence (Q9UBN7 1-1215): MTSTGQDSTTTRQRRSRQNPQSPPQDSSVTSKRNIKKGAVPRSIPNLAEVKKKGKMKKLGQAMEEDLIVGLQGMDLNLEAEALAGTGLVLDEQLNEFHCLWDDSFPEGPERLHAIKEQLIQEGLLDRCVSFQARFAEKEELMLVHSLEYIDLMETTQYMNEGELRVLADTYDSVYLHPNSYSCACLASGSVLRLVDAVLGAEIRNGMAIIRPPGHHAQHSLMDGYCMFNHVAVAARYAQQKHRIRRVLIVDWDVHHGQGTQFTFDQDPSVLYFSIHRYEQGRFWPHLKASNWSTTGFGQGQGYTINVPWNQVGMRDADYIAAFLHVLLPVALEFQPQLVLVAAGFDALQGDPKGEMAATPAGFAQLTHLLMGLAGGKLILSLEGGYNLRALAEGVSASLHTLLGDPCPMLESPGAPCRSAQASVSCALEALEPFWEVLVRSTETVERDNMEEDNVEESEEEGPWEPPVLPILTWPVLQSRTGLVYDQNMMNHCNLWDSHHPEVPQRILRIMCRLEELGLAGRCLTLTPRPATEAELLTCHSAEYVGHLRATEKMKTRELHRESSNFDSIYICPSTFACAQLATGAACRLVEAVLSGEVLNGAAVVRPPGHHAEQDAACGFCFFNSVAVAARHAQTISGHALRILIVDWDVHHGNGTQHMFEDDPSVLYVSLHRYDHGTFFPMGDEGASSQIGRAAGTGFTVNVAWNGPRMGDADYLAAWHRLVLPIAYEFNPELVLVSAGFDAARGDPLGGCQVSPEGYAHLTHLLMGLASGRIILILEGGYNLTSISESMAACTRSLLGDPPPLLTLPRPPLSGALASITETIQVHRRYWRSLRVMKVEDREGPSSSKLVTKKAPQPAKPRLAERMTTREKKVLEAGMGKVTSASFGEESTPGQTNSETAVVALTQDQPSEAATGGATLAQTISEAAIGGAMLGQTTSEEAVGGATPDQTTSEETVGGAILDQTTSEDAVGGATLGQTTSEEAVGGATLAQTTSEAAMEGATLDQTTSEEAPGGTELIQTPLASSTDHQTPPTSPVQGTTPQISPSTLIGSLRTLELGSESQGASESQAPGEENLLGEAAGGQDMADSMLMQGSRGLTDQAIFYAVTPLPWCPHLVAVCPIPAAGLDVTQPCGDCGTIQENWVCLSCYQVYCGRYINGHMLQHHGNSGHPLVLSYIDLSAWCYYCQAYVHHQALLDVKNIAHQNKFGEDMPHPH
Particulars: ref Zhou et al. [2019]; cited from earlier work.

SMILES strings stand for the structures. “Also recorded” adds a separate entry of the source.

For the molecule `CC1(C)CCC(CN2CCN(c3ccc(C(=O)NS(=O)(=O)c4ccc(NCc5ccc(C(=O)Nc6ccc(-c7cccs7)cc6N)cc5)c([N+](=O)[O-])c4)c(Oc4cnc5[nH]ccc5c4)c3)CC2)=C(c2ccc(Cl)cc2)C1` [AMC‐4‐074, 2‐((1H‐pyrrolo[2,3‐b]pyridin‐5‐yl)oxy)‐N‐((4‐((4‐((2‐amino‐4‐(thiophen‐2‐yl)phenyl)carbamoyl)benzyl)amino)‐3‐nitrophenyl)sulfonyl)‐4‐(4‐((4′‐chloro‐5,5‐dimethyl‐3,4,5,6‐tetrahydro‐[1,1′‐biphenyl]‐2‐yl)methyl)piperazin‐1‐yl)benzamide], the “solubility under the assay conditions” value in data set [1] is listed as “solubility proved problematic; also recorded: Limited solubility”.

Regarding `CC1(C)CCC(CN2CCN(c3ccc(C(=O)NS(=O)(=O)c4ccc(NCC5CCN(c6c(F)cc(C(=O)NO)cc6F)CC5)c([N+](=O)[O-])c4)c(Oc4cnc5[nH]ccc5c4)c3)CC2)=C(c2ccc(Cl)cc2)C1` [AMC‐4‐101, 4‐(4‐(((4‐(N‐(2‐((1H‐pyrrolo[2,3‐b]pyridin‐5‐yl)oxy)‐4‐(4‐((4′‐chloro‐5,5‐dimethyl‐3,4,5,6‐tetrahydro‐[1,1′‐biphenyl]‐2‐yl)methyl)piperazin‐1‐yl)benzoyl)sulfamoyl)‐2‐nitrophenyl)amino)methyl)piperidin‐1‐yl)‐3,5‐difluoro‐N‐hydroxybenzamide], in data set [1], the “solubility under the assay conditions” value is “Limited solubility”.

As to `O=C(CCCCCCC(=O)Nc1ccccc1)NO` [SAHA], the “selectivity for HDAC6 over HDAC1” value on HDAC6 is on record as “about threefold”.
